The record followed here is patent US12180155B2, “Crystalline forms of a cannabinoid receptor type 1 (CB1) modulator and methods of use and preparation thereof” (Anebulo Pharmaceuticals, Inc., priority 2021, dated 2024).

Molecules are shown by their SMILES.

Common to all, as to type: physicochemical
A short description of series [1]: Dynamic vapor sorption (DVS). Particulars: for weight gain from dryness to 90% RH: second adsorption cycle. The text has this:
DVS: Polymorphs according to the present disclosure may also give rise to vapors sorption behavior different from that of the amorphous material or another polymorphic form. The vapor sorption behavior may be measured in the laboratory by dynamic vapor sorption (DVS) which may be used to distinguish some polymorphic forms from others. In one aspect, the polymorphs as described herein may be characterized by dynamic vapor sorption.
The DVS trace of Crystalline Form I of (R)—N-(tert-butyl)-3-((4-chlorophenyl)(2-(trifluoromethyl)phenyl)methoxy)azetidine-1-carboxamide (compound 1) is reported in FIG. 4.
The DVS trace of Crystalline Form I of (R)—N-(tert-butyl)-3-((4-chlorophenyl)(2-(trifluoromethyl)phenyl)methoxy)azetidine-1-carboxamide (compound 1) is reported in FIG. 8.

Series [2] in a line: Stability at solid state (XRPD re-analysis after storage).
A short description of series [3]: Competitive slurries of Crystalline Form I and Crystalline Form II. As to conditions: for conversion of equimolar Form I / Form II slurry to this form: XRPD of solids. The procedure: The relationship between Crystalline Form I and Crystalline Form II of Compound 1 was investigated via competitive slurries and solubility determination.
Equimolar amounts of the Crystalline Form I and Crystalline Form II were suspended in saturated solution of compound 1 and aged in different conditions. Slurry samples were taken at intervals, solids were filtered, dried and analyzed by XRPD. Two temperatures, 20° C. and 40° C., and two different solvent systems, heptane and a mixture of ethanol and water, were investigated.

Series [4] in a line: Temperature dependent solubility in heptane (Crystal16, clear points). Particulars: for temperature at which the two solubility lines intersect / relative solubility: heptane; for temperature at which the two solubility lines intersect: Form I vs Form II. How it is done: Temperature dependent solubility experiment was performed on Crystalline Form I and Crystalline Form II of Compound 1, and data was generated by Crystal16 equipment using heptane as solvent. Slurries with accurate amounts of solid in heptane were prepared, equilibrated at 20° C. for 5 minutes then heated to 70° C. at a rate of 5° C./min, and the turbidity of the suspensions were measured. Clear points of the solutions were determined and solubility vs. temperature curves (Arrhenius plots: ln[conc.] vs. 1/T [° K]) were obtained, as shown in FIG. 9.

A short description of series [5]: Thermogravimetric analysis (TGA). Particulars: up to 150° C. The text has this: TGA: Polymorphs according to the present disclosure may also give rise to thermal behavior different from that of the amorphous material or another polymorphic form. Thermal behavior may be measured in the laboratory by thermogravimetric analysis (TGA) which may be used to distinguish some polymorphic forms from others. In one aspect, the polymorphs as described herein may be characterized by thermogravimetric analysis.
The TGA trace of Crystalline Form I of (R)—N-(tert-butyl)-3-((4-chlorophenyl)(2-(trifluoromethyl)phenyl)methoxy)azetidine-1-carboxamide (compound 1) is reported in FIG. 3.
The TGA trace of Crystalline Form II of (R)—N-(tert-butyl)-3-((4-chlorophenyl)(2-(trifluoromethyl)phenyl)methoxy)azetidine-1-carboxamide (compound 1) is reported in FIG. 7.

Regarding `CC(C)(C)NC(=O)N1CC(O[C@H](c2ccc(Cl)cc2)c2ccccc2C(F)(F)F)C1` [Crystalline Form I, (R)—N-(tert-butyl)-3-((4-chlorophenyl)(2-(trifluoromethyl)phenyl)methoxy)azetidine-1-carboxamide], the “weight gain from dryness to 90% RH” value in series [1] was found to be 0.4%. Besides, in series [2] (5 weeks of storage at laboratory conditions), the “XRPD pattern after storage with respect to initial XRPD pattern” value was “did not show significant differences”. Besides, the “conversion of equimolar Form I / Form II slurry to this form” value in series [3] (40° C.) was “slow but complete conversion”. Further, the “temperature at which the two solubility lines intersect” value in series [4] was “about 39 °C”. Besides, the relative solubility entry in series [4] (temperature greater than 40° C.) is recorded as “less than that of Crystalline Form II”. The relative stability entry in series [4] (temperatures greater than 40° C.) is listed as “more stable”. Besides, in series [5], the weight loss is < 0.1%.

`CC(C)(C)NC(=O)N1CC(O[C@H](c2ccc(Cl)cc2)c2ccccc2C(F)(F)F)C1` [Crystalline Form II, (R)—N-(tert-butyl)-3-((4-chlorophenyl)(2-(trifluoromethyl)phenyl)methoxy)azetidine-1-carboxamide]: the hygroscopic behavior result in series [1] (dryness to 90% RH) is “non-hygroscopic behavior”. Further, the “weight gain from dryness to 90% RH” value in series [1] is < 0.1%. In addition, the “XRPD pattern after storage with respect to initial XRPD pattern” value in series [2] (8 weeks of storage at laboratory conditions) is reported as “did not show significant differences”. In addition, in series [3] (20° C., heptane and ethanol/water), the “conversion of equimolar Form I / Form II slurry to this form” value is on record as “complete conversion”. Also, in series [3] (room temperature (20-21° C.)), the relative polymorph stability entry was “most stable polymorph form”. In series [4], the “temperature at which the two solubility lines intersect” value is “about 39 °C”. In addition, in series [4] (temperature less than 39° C.), the relative solubility entry was “less than that of Crystalline Form I”. The relative stability result in series [4] (temperatures less than 39° C.) is listed as “more stable”. Besides, the weight loss in series [5] was < 0.1%.
